The target in one assay is IRAK4 (Homo sapiens (Human), UniProt Q9NWZ3). Description: IRAK-4 AlphaScreen biochemical kinase assay. The conditions noted are these: 1 nM IRAK4, 1 mM ATP, 3.5 h at RT. Summed up:
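AlphaScreen read-out: streptavidin beads bind the biotinylated peptide and protein A beads bind the anti-phosphothreonine antibody, so energy transfer reports phosphorylation of the peptide. The kinase is human IRAK-4.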

For another assay, the system named is IL-6 in A549 cells. The experiment in a line: Cell-based IL-6 ELISA assay in IL-1beta stimulated A549 cells. The conditions noted are these: 2 ng/ml human IL-1beta overnight. The procedure, abridged: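 A549 cells (2.5×10^4/well, DMEM/10% FBS) pretreated 30 min at 37 C with compound, 10-point serial dilution from 10 uM, then stimulated overnight with 2 ng/ml human IL-1beta. Secreted IL-6 in supernatant quantified by human IL-6 ELISA.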
In general terms: An ELISA detects its analyte on a solid surface through an enzyme-linked reagent.

The values that follow come from patent publication US10246456B2, “IRAK4 inhibiting agents” (BIOGEN MA INC., priority 2014, dated 2019).

A word on the IC50: it is the concentration at which inhibition is half-maximal. Read a high IC50 as lower potency. In general, EC50 refers to the midpoint of the concentration-response curve. Read a low EC50 as an effect from little substance.

Chain of IRAK4 (Q9NWZ3 whole entry, species assumed): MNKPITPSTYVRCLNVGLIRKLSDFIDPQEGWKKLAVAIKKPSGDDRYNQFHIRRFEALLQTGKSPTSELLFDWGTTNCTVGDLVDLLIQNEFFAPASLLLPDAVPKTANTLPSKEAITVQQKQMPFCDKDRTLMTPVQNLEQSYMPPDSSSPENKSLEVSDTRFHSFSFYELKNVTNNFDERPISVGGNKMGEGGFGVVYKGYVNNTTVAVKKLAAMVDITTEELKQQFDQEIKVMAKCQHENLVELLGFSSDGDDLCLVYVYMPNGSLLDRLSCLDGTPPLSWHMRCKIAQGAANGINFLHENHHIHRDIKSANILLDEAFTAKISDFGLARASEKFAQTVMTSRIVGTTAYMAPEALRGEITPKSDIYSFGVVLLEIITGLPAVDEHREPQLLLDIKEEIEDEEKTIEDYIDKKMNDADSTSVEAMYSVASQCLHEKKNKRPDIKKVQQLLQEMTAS

Consider `CC(N)CNC(=O)c1cc(-c2cccc([C@H](C)N)n2)cc2c1cnn2-c1cccc(CO)n1` (stereo partly drawn) [Example 548, 6-(6-((S)-1-aminoethyl)pyridin-2-yl)-N-(2-aminopropyl)-1-(6-(hydroxymethyl)pyridin-2-yl)-1H-indazole-4-carboxamide], for which the IC50 against IRAK4 was in the range of 100 to 1000 nM. Also, in the assay with IL-6 in A549 cells, the concentration for a half-maximal effect (EC50) lay within 1000 to 10000 nM.

For the compound `CCCC(O)c1cccc(-c2ccc3cnn(-c4cccc(CO)n4)c3c2)n1` (stereo not shown) [Example 550, 1-(6-(1-(6-(hydroxymethyl)pyridin-2-yl)-1H-indazol-6-yl)pyridin-2-yl)butan-1-ol], the concentration for half-maximal inhibition (IC50) at IRAK4 is 1000 to 10000 nM. This compound also had a concentration giving a half-maximal response (EC50) in the assay on IL-6 in A549 cells of 1000 to 10000 nM.
